pIC50: −log10 of the molar value.

The target in the test is Tyrosine-protein kinase Lck (Homo sapiens, UniProt P06239). The experiment in a line: Inhibition of Lck by lance assay.
Chain of Tyrosine-protein kinase Lck (P06239 whole entry): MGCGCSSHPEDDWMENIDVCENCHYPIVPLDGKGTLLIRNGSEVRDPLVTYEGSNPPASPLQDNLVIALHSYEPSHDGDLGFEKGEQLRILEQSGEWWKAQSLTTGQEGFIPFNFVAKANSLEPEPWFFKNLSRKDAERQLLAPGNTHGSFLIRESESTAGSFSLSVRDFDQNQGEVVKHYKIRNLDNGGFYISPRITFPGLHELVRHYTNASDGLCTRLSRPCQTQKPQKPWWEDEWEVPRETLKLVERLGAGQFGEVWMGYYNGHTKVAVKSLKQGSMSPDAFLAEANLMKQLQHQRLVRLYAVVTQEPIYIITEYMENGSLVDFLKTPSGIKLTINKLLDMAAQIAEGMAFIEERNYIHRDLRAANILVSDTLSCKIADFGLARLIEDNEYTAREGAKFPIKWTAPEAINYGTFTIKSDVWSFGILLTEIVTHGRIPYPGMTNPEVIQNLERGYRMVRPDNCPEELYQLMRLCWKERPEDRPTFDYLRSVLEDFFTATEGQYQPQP
One may read the pIC50 as the negative decadic logarithm of the IC50, by convention in mol/L. Low readings indicate a large IC50, high ones a small IC50. The compound `Cc1nc(Nc2cc(-n3c(Nc4c(C)cccc4Cl)nc4ccccc43)ncn2)cc(N2CCN(CCO)CC2)n1` had a pIC50 of 7.60. The result for `Cc1cccc(Cl)c1Nc1nc2ccccc2n1-c1cc(Nc2ncnc(NCCN3CCOCC3)c2C)ncn1` reads 6.92; that for `Cc1nc(NCCN2CCOCC2)cc(Nc2cc(-n3c(Nc4c(C)cccc4Cl)nc4ccccc43)ncn2)n1`, 8.30; that for `Cc1cccc(Cl)c1Nc1nc2ccccc2n1-c1cc(Nc2ccc(CCN3CCOCC3)cn2)ncn1`, 7.51. The result for `Cc1cccc(Cl)c1Nc1nc2ccccc2n1-c1cc(Cl)ncn1` reads < 5.60; that for `Cc1cccc(Cl)c1Nc1nc2ccccc2n1-c1cc(Nc2cc(CN3CCOCC3)ccn2)ncn1`, 7.85.

Turning to `Cc1cccc(Cl)c1Nc1nc2ccccc2n1-c1cc(NN2CCOCC2)ncn1`, the pIC50 is < 5.60. The result for `CCN(CC)CCCCNc1cc(-n2c(Nc3c(C)cccc3Cl)nc3ccccc32)ncn1` reads 6.10; that for `Cc1cc(C)c(Nc2nc3ccccc3n2-c2cc(N)ncn2)c(Br)c1`, 5.87.

The compound `Cc1cc(C)c(Nc2nc3ccccc3n2-c2cc(N)ncn2)c(C)c1` had a pIC50 of 5.75. The result for `Cc1cccc(Cl)c1Nc1nc2ccccc2n1-c1ccncn1` reads 5.68; that for `Cc1cccc(Cl)c1Nc1nc2ccccc2n1-c1cc(N2CCOCC2)ncn1`, < 5.60. Next, `Cc1cccc(Cl)c1Nc1nc2ccccc2n1-c1cc(N)ncn1`: 6.29.
